Test results: DBAASP
Converted amounts (≈) assume the structure as drawn. “And” between values parts separate entries of the source, which are not always exact repeats. Identical values can stand only once. Values belong to the compound of their own block, whether it stands above or below them.

Experiments:
Test in all cases: ≥ marks a high value that may be exact or a test limit, other limits are often not marked, values filed in µg/mL are converted to µM
[1] = tested on: Staphylococcus aureus ATCC 43300
Yersinia enterocolitica = tested on: Yersinia enterocolitica
[2] = tested on: Salmonella enterica subsp. enterica serovar Enteritidis
Salmonella sp. = tested on: Salmonella sp.
[3] = tested on: Escherichia coli ATCC 25922
[4] = tested on: Pseudomonas aeruginosa ATCC 27853
[5] = tested on: Staphylococcus aureus ATCC 29213
Escherichia coli = tested on: Escherichia coli
[6] = tested on: Bacillus subtilis var. niger ATCC 9372
Escherichia coli K91BK = tested on: Escherichia coli K91BK
[7] = tested on: Bacillus anthracis Sterne 34F2
[8] = tested on: Klebsiella pneumoniae ATCC 10031
[9] = tested on: Shigella dysenteriae ATCC 9752
[10] = tested on: Micrococcus luteus ATCC 10240
[11] = tested on: Salmonella enterica subsp. enterica serovar Typhimurium ATCC 14028
[12] = tested on: Staphylococcus aureus ATCC 6538P
[13] = tested on: Staphylococcus epidermidis ATCC 12228
[14] = tested on: Bacillus subtilis ATCC 6633
[15] = tested on: Escherichia coli ATCC 8739
[16] = tested on: Staphylococcus aureus ATCC 6538
[17] = tested on: Pseudomonas aeruginosa ATCC 9027
[18] = tested on: Staphylococcus aureus ATCC 25923
[19] = tested on: Escherichia coli ATCC 25726
[20] = tested on: Candida albicans ATCC 90028
[21] = tested on: Acinetobacter baumannii NM109
[22] = tested on: Acinetobacter baumannii NM35
Acinetobacter baumannii = tested on: Acinetobacter baumannii
[23] = tested on: Acinetobacter baumannii NM8
[24] = tested on: Acinetobacter baumannii NM75
[25] = tested on: Acinetobacter baumannii NM124

Compound: CC(=O)N[C@@H](Cc1c[nH]c2ccccc12)C(=O)N[C@@H](CCCN=C(N)N)C(=O)N[C@@H](CO)C(=O)N[C@@H](CC(C)C)C(=O)NCC(=O)N[C@@H](CCCN=C(N)N)C(=O)N[C@H](C(=O)N[C@@H](CC(C)C)C(=O)N[C@@H](CC(C)C)C(=O)N[C@@H](CCCN=C(N)N)C(=O)N[C@@H](CC(C)C)C(=O)N[C@@H](CO)C(=O)N[C@@H](Cc1cnc[nH]1)C(=O)N[C@@H](C)C(=O)N[C@@H](CC(C)C)C(=O)N[C@@H](CCCCN)C(=O)N1CCC[C@H]1C(=O)N[C@@H](CC(C)C)C(=O)N[C@@H](C)C(=O)N[C@@H](CCCN=C(N)N)C(=O)N[C@@H](CCCN=C(N)N)C(=O)N[C@@H](CO)C(=O)NCC(=O)N[C@@H](Cc1c[nH]c2ccccc12)C(N)=O)[C@@H](C)O [WRSLGRTLLRLSHALKPLARRSGW]
- MIC [6]: 2.1 µM (≈ 6.03 µg/mL)
- MIC (Escherichia coli K91BK): ≥ 100 µM
- MIC [7]: 7.87 µM (≈ 22.6 µg/mL)

Compound: CC[C@H](C)[C@H](NC(=O)[C@H](C)NC(=O)[C@H](CCCCN)NC(=O)[C@H](CCCN=C(N)N)NC(=O)CNC(=O)[C@H](Cc1ccccc1)NC(=O)[C@H](CCCCN)NC(=O)[C@H](CCCCN)NC(=O)[C@@H](NC(=O)[C@H](CC(C)C)NC(=O)[C@H](CCCCN)NC(=O)CNC(=O)[C@H](Cc1ccccc1)NC(=O)[C@H](CC(C)C)NC(=O)CNC(C)=O)[C@@H](C)CC)C(=O)N[C@@H](CO)C(=O)N[C@@H](Cc1ccc(O)cc1)C(=O)N[C@@H](C)C(=O)N[C@H](C(=O)N[C@@H](CCCCN)C(=O)N[C@@H](CCCCN)C(=O)N[C@@H](C)C(=O)N[C@@H](CCCN=C(N)N)C(=O)NCC(=O)N[C@@H](CCCCN)C(=O)N[C@@H](Cc1cnc[nH]1)C(N)=O)C(C)C [GLFGKLIKKFGRKAISYAVKKARGKH]
- MIC [6]: 2.37 µM (≈ 6.98 µg/mL)
- MIC (Escherichia coli K91BK): ≥ 100 µM
- MIC [7]: 6.25 µM (≈ 18.4 µg/mL)

Compound: NCCCC[C@H](NC(=O)[C@H](Cc1c[nH]c2ccccc12)NC(=O)[C@H](Cc1ccccc1)NC(=O)[C@H](Cc1c[nH]c2ccccc12)NC(=O)[C@@H](N)CS)C(=O)N[C@@H](Cc1c[nH]c2ccccc12)C(=O)N[C@@H](Cc1c[nH]c2ccccc12)C(=O)N[C@@H](CCCN=C(N)N)C(=O)N[C@@H](CCCN=C(N)N)C(=O)N[C@@H](CCCN=C(N)N)C(=O)N[C@@H](CCCN=C(N)N)C(=O)N[C@@H](CCCN=C(N)N)C(N)=O [CWFWKWWRRRRR]
- MIC [15]: 5.2 µM and 7.3 µM
- MIC [16]: 2.5 µM and 4.7 µM
- MIC [17]: 5.5 µM and 8.7 µM

Compound: CC(=O)N[C@@H](CCCCN)C(=O)N[C@@H](Cc1c[nH]c2ccccc12)C(=O)N[C@@H](CCCCN)C(=O)N[C@@H](CCCCN)C(=O)N[C@@H](CC(C)C)C(=O)N[C@@H](CC(C)C)C(=O)N[C@@H](CCCCN)C(=O)N[C@@H](CCCCN)C(=O)N1CCC[C@H]1C(=O)N[C@@H](CC(C)C)C(=O)N[C@@H](CC(C)C)C(=O)N[C@@H](CCCCN)C(=O)N[C@@H](CCCCN)C(=O)N[C@@H](CC(C)C)C(=O)N[C@@H](CC(C)C)C(=O)N[C@@H](CCCCN)C(=O)N[C@@H](CCCCN)C(=O)N[C@@H](CC(C)C)C(N)=O [KWKKLLKKPLLKKLLKKL]
- MIC [6]: 3.13 µM (≈ 7.16 µg/mL)
- MIC (Escherichia coli K91BK): ≥ 100 µM
- MIC [7]: ≥ 100 µM

Second part, the compound after the results:

- MIC [1]: > 50 µM
- MIC (Yersinia enterocolitica): ≥ 50 µM
- MIC [2]: ≥ 50 µM
- MIC (Salmonella sp.): ≥ 50 µM
- MIC [3]: > 50 µM
- MIC [4]: > 50 µM
- MIC [5]: > 50 µM
- MIC (Escherichia coli): > 50 µM
Compound: CSCC[C@H](NC(=O)[C@H](CCCN=C(N)N)NC(=O)[C@H](CCCN=C(N)N)NC(=O)[C@@H](N)CC(N)=O)C(=O)N[C@@H](CCCCN)C(=O)N[C@@H](Cc1c[nH]c2ccccc12)C(=O)N[C@@H](CCCCN)C(=O)N[C@@H](CCCCN)C(N)=O [NRRMKWKK]

- MIC [8]: ≥ 96 µM
- MIC [9]: ≥ 192 µM
- MIC [10]: ≥ 96 µM
- MIC [11]: > 192 µM
- MIC [12]: 24 µM (≈ 25 µg/mL)
- MIC [3]: 96 µM (≈ 99.9 µg/mL)
- MIC [4]: 96 µM (≈ 99.9 µg/mL)
- MIC [13]: 192 µM (≈ 200 µg/mL)
- MIC [14]: ≥ 48 µM
Compound: CC(C)C[C@H](NC(=O)[C@H](CC(C)C)NC(=O)[C@H](Cc1c[nH]c2ccccc12)NC(=O)[C@H](CCCCN)NC(=O)[C@H](CC(C)C)NC(=O)[C@H](CC(C)C)NC(=O)[C@@H](N)CCCCN)C(=O)N[C@@H](CCCCN)C(N)=O [KLLKWLLK]

- MIC [15]: 3.69 µM (≈ 8 µg/mL)
- MIC [18]: 29.5 µM (≈ 64 µg/mL)
Compound: CC[C@H](C)[C@H](NC(=O)[C@H](CCCCN)NC(=O)[C@H](CCCN=C(N)N)NC(=O)[C@H](CC(C)C)NC(=O)[C@@H](NC(=O)[C@H](CCCCN)NC(=O)CNC(=O)[C@H](CC(C)C)NC(=O)[C@@H](NC(=O)[C@H](CCCCN)NC(=O)[C@H](CC(N)=O)NC(=O)[C@H](CCCN=C(N)N)NC(=O)[C@H](C)NC(=O)[C@H](CCSC)NC(=O)[C@@H]1CCCN1)[C@@H](C)CC)[C@@H](C)CC)C(=O)N[C@@H](C)C(=O)N[C@@H](C)C(=O)N[C@@H](Cc1ccccc1)C(=O)N[C@@H](CCCCN)C(=O)O [PMARNKILGKILRKIAAFK]

- MIC [19]: 12.5 µM (≈ 28.6 µg/mL)
- MIC [20]: 12.5 µM (≈ 28.6 µg/mL)
- MIC [21]: 3 µM (≈ 6.87 µg/mL)
- MIC [22]: 3 µM (≈ 6.87 µg/mL)
- MIC (Acinetobacter baumannii): 6.25 µM (≈ 14.3 µg/mL)
- MIC [23]: 3 µM (≈ 6.87 µg/mL)
- MIC [18]: 100 µM (≈ 229 µg/mL)
- MIC [24]: 3 µM (≈ 6.87 µg/mL)
- MIC [25]: 3 µM (≈ 6.87 µg/mL)
Compound: CC[C@H](C)[C@H](NC(=O)CN)C(=O)N[C@@H](Cc1c[nH]c2ccccc12)C(=O)N[C@@H](CCCCN)C(=O)N[C@H](C(=O)N[C@H](C(=O)N[C@@H](CCCCN)C(=O)N[C@@H](CO)C(=O)N[C@@H](CCSC)C(=O)NCC(=O)N[C@@H](CCCCN)C(=O)N[C@H](C(=O)N[C@@H](Cc1ccccc1)C(=O)N[C@@H](C)C(=O)NCC(=O)N[C@@H](C)C(=O)N[C@H](C(=O)N[C@@H](CCCCN)C(=O)N[C@@H](CCC(N)=O)C(=O)N[C@@H](CC(N)=O)C(=O)N[C@@H](CC(C)C)C(N)=O)[C@@H](C)CC)C(C)C)[C@@H](C)CC)[C@@H](C)O [GIWKTIKSMGKVFAGAIKQNL]

- MIC [19]: 25 µM (≈ 58.7 µg/mL)
- MIC [20]: 12.5 µM (≈ 29.3 µg/mL)
- MIC [21]: 6 µM (≈ 14.1 µg/mL)
- MIC [22]: 6 µM (≈ 14.1 µg/mL)
- MIC (Acinetobacter baumannii): 6.25 µM (≈ 14.7 µg/mL)
- MIC [23]: 6 µM (≈ 14.1 µg/mL)
- MIC [18]: 100 µM (≈ 235 µg/mL)
- MIC [24]: 3 µM (≈ 7.04 µg/mL)
- MIC [25]: 6 µM (≈ 14.1 µg/mL)
Compound: CC[C@H](C)[C@H](NC(=O)CN)C(=O)N[C@@H](Cc1c[nH]c2ccccc12)C(=O)N[C@@H](CCCCN)C(=O)N[C@H](C(=O)N[C@H](C(=O)N[C@@H](CCCCN)C(=O)N[C@@H](CO)C(=O)N[C@@H](CCSC)C(=O)NCC(=O)N[C@@H](CCCCN)C(=O)N[C@H](C(=O)N[C@@H](Cc1ccccc1)C(=O)N[C@@H](C)C(=O)NCC(=O)N[C@@H](CCCCN)C(=O)N[C@H](C(=O)N[C@@H](CCCCN)C(=O)N[C@@H](CCC(N)=O)C(=O)N[C@@H](CC(N)=O)C(=O)N[C@@H](CC(C)C)C(N)=O)[C@@H](C)CC)C(C)C)[C@@H](C)CC)[C@@H](C)O [GIWKTIKSMGKVFAGKIKQNL]

- MIC [8]: 8.36 µM (≈ 12.5 µg/mL)
- MIC [9]: 16.7 µM (≈ 25 µg/mL)
- MIC [10]: 2.07 µM (≈ 3.1 µg/mL)
- MIC [11]: 33.4 µM (≈ 50 µg/mL)
- MIC [12]: 4.21 µM (≈ 6.3 µg/mL)
- MIC [3]: 8.36 µM (≈ 12.5 µg/mL)
- MIC [4]: 8.36 µM (≈ 12.5 µg/mL)
- MIC [13]: 4.21 µM (≈ 6.3 µg/mL)
- MIC [14]: 2.07 µM (≈ 3.1 µg/mL)
Compound: CC(C)C[C@H](NC(=O)[C@H](Cc1c[nH]c2ccccc12)NC(=O)[C@H](CCCCN)NC(=O)[C@H](CC(C)C)NC(=O)[C@@H](N)Cc1ccccc1)C(=O)N[C@@H](Cc1ccccc1)C(=O)N[C@@H](CCCCN)C(=O)N[C@@H](Cc1c[nH]c2ccccc12)C(=O)N[C@@H](C)C(=O)N[C@@H](CCCCN)C(=O)N[C@@H](CCCCN)C(N)=O [FLKWLFKWAKK]
